From patent US8741836B2, “Polypeptides” (Novo Nordisk A/S, priority 2011, dated 2014)
Starred links: 1 amine or outer side, 2 acyl side, 3 side chain; linkers in the order of their positions; H or OH if unused. Positions of bridges follow the written chain, without caps; N, C: chain ends. Residues, ends and D or L forms follow the SMILES beside them. Groups on a side chain read outwards from the residue. *: point of attachment. C20 diacid = O=C(O)CCCCCCCCCCCCCCCCCCC(=O)*; C18 diacid = O=C(O)CCCCCCCCCCCCCCCCC(=O)*; γGlu = O=C(O)[C@H](CCC(=O)[*:2])N[*:1]; AEEA = NCCOCCOCC(=O)O

Legend:
[1] = Assay (III) ThT fibrillation assay for physical stability; type: physicochemical; details: for ThT pH 4.0 lag time: pH 4.0, ThT fibrillation assay
Procedure, shortened: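 Freshly prepared, pH-adjusted formulations with 1 μM ThT incubated at 37 °C under 960 rpm orbital shaking (1 mm), fluorescence (ex 444, em 485 nm) read every 20 min. […] Peptide content before and after measured by reverse-phase HPLC against pramlintide standard.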

[2] = system: ad libitum fed rat; assay: Assay (I) efficacy testing on appetite (food intake) using an ad libitum fed rat model; type: in vivo, Sprague Dawley (SD) rats; details: 3 nmol/kg
Procedure, shortened: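 Ad libitum fed Sprague Dawley rats, 200-250 g, singly housed on reversed light cycle, got one ip, po or sc dose of 0.01-3 mg/kg just before lights off; groups of 5-8 with vehicle control. Food intake recorded hourly for 7 h, then at 24 h and sometimes 48 h; Grubbs outliers excluded.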

SMILES | ThT pH 4.0 lag time (physical stability in fibrillogenesis assay) [1] [h] | ThT pH 4.0 lag time [1] [h] | Food intake reduction 0-24 h 3 nmol/kg (%) [2] [%] | Food intake reduction 24-48 h 3 nmol/kg (%) [2] [%]
CC[C@H](C)[C@H](NC(=O)[C@@H]1CCCN1C(=O)CNC(=O)[C@H](Cc1ccccc1)NC(=O)[C@H](CC(N)=O)NC(=O)[C@H](CCC(N)=O)NC(=O)[C@H](CO)NC(=O)[C@H](CO)NC(=O)[C@H](Cc1c[nH]cn1)NC(=O)[C@H](Cc1c[nH]cn1)NC(=O)[C@H](CC(C)C)NC(=O)[C@H](Cc1ccccc1)NC(=O)[C@H](CCC(=O)O)NC(=O)[C@H](C)NC(=O)[C@H](CC(C)C)NC(=O)[C@H](CCCNC(=N)N)NC(=O)[C@H](CCC(N)=O)NC(=O)[C@@H](NC(=O)[C@H](C)NC(=O)[C@@H]1CSSC[C@H](NC(=O)[C@H](CCCCN)NC(=O)CC[C@H](NC(=O)CCCCCCCCCCCCCCCCCCC(=O)O)C(=O)O)C(=O)N[C@@H](CC(N)=O)C(=O)N[C@@H]([C@@H](C)O)C(=O)N[C@@H](C)C(=O)N[C@@H]([C@@H](C)O)C(=O)N1)[C@@H](C)O)C(=O)N[C@@H](CC(C)C)C(=O)N1CCC[C@H]1C(=O)N1CCC[C@H]1C(=O)N[C@H](C(=O)N[C@@H](CC(N)=O)C(=O)N[C@H](C(=O)NCC(=O)N[C@@H](CO)C(=O)N[C@@H](Cc1c[nH]cn1)C(=O)N[C@H](C(=O)N[C@@H](Cc1ccc(O)cc1)C(N)=O)[C@@H](C)O)C(C)C)[C@@H](C)O [Example 117, N-alpha-[(S)-4-Carboxy-4-(19-carboxynonadecanoylamino)butyryl]-[Glu14,His17,Gln21,His35)-pramlintide] ({C20 diacid-γGlu}-KCNTATCATQRLAEFLHHSSQNFGPILPPTNVGSHTY-NH2; disulfide 2-7) | >45 | >45 | 50 | 35
CC[C@H](C)[C@H](NC(=O)[C@@H]1CCCN1C(=O)CNC(=O)[C@H](Cc1ccccc1)NC(=O)[C@H](CC(N)=O)NC(=O)[C@H](CC(N)=O)NC(=O)[C@H](CO)NC(=O)[C@H](CO)NC(=O)[C@H](Cc1c[nH]cn1)NC(=O)[C@H](Cc1c[nH]cn1)NC(=O)[C@H](CC(C)C)NC(=O)[C@H](Cc1ccccc1)NC(=O)[C@H](CCC(=O)O)NC(=O)[C@H](C)NC(=O)[C@H](CC(C)C)NC(=O)[C@H](CCCNC(=N)N)NC(=O)[C@H](CCC(N)=O)NC(=O)[C@@H](NC(=O)[C@H](C)NC(=O)[C@@H]1CSSC[C@H](NC(=O)[C@H](CCCNC(=N)N)NC(=O)CC[C@H](NC(=O)CCCCCCCCCCCCCCCCCCC(=O)O)C(=O)O)C(=O)N[C@@H](CC(N)=O)C(=O)N[C@@H]([C@@H](C)O)C(=O)N[C@@H](C)C(=O)N[C@@H]([C@@H](C)O)C(=O)N1)[C@@H](C)O)C(=O)N[C@@H](CC(C)C)C(=O)N1CCC[C@H]1C(=O)N1CCC[C@H]1C(=O)N[C@H](C(=O)N[C@@H](CC(N)=O)C(=O)N[C@H](C(=O)NCC(=O)N[C@@H](CO)C(=O)N[C@@H](CC(N)=O)C(=O)N[C@H](C(=O)N1CCC[C@H]1C(N)=O)[C@@H](C)O)C(C)C)[C@@H](C)O [Example 96, N-alpha-[(S)-4-Carboxy-4-(19-carboxynonadecanoylamino)butyryl]-[Arg1,Glu14,His17,Pro37]-pramlintide] ({C20 diacid-γGlu}-RCNTATCATQRLAEFLHHSSNNFGPILPPTNVGSNTP-NH2; disulfide 2-7) | >45 | >45 | 69 | 89
CC[C@H](C)[C@H](NC(=O)[C@H](CCCCNC(=O)COCCOCCNC(=O)COCCOCCNC(=O)CC[C@H](NC(=O)CCCCCCCCCCCCCCCCC(=O)O)C(=O)O)NC(=O)CNC(=O)[C@H](Cc1ccccc1)NC(=O)[C@H](CC(N)=O)NC(=O)[C@H](CC(N)=O)NC(=O)[C@H](CO)NC(=O)[C@H](CO)NC(=O)[C@H](Cc1c[nH]cn1)NC(=O)[C@H](Cc1c[nH]cn1)NC(=O)[C@H](CC(C)C)NC(=O)[C@H](Cc1ccccc1)NC(=O)[C@H](CCC(=O)O)NC(=O)[C@H](C)NC(=O)[C@H](CC(C)C)NC(=O)[C@H](CCCNC(=N)N)NC(=O)[C@H](CCC(N)=O)NC(=O)[C@@H](NC(=O)[C@H](C)NC(=O)[C@@H]1CSSC[C@H](NC(=O)[C@@H](N)CCCCN)C(=O)N[C@@H](CC(N)=O)C(=O)N[C@@H]([C@@H](C)O)C(=O)N[C@@H](C)C(=O)N[C@@H]([C@@H](C)O)C(=O)N1)[C@@H](C)O)C(=O)N[C@@H](CC(C)C)C(=O)N1CCC[C@H]1C(=O)N1CCC[C@H]1C(=O)N[C@H](C(=O)N[C@@H](CC(N)=O)C(=O)N[C@H](C(=O)NCC(=O)N[C@@H](CO)C(=O)N[C@@H](CC(N)=O)C(=O)N[C@H](C(=O)N[C@@H](Cc1ccc(O)cc1)C(N)=O)[C@@H](C)O)C(C)C)[C@@H](C)O [Example 73, N-epsilon25-[2-(2-{2-[2-(2-{2-[(S)-4-Carboxy-4-(17-carboxyheptadecanoylamino)butyrylamino]ethoxy}ethoxy)acetylamino]ethoxy}ethoxy)acetyl]-[Glu14,His17,Lys25]-pramlintide] (H-KCNTATCATQRLAEFLHHSSNNFGK([AEEA-AEEA-γGlu-C18 diacid])ILPPTNVGSNTY-NH2; disulfide 2-7; N-terminus assumed) | – | >45 | 29 | 2
CC[C@H](C)[C@H](NC(=O)[C@@H]1CCCN1C(=O)CNC(=O)[C@H](Cc1ccccc1)NC(=O)[C@H](CC(N)=O)NC(=O)[C@H](CC(N)=O)NC(=O)[C@H](CO)NC(=O)[C@H](CO)NC(=O)[C@H](Cc1c[nH]cn1)NC(=O)[C@H](CCCNC(=N)N)NC(=O)[C@H](CC(C)C)NC(=O)[C@H](Cc1ccccc1)NC(=O)[C@H](CCC(=O)O)NC(=O)[C@H](C)NC(=O)[C@H](CC(C)C)NC(=O)[C@H](CCCNC(=N)N)NC(=O)[C@H](CCC(N)=O)NC(=O)[C@@H](NC(=O)[C@H](C)NC(=O)[C@@H]1CSSC[C@H](NC(=O)[C@H](CCCCN)NC(=O)[C@H](Cc2c[nH]cn2)NC(=O)CC[C@H](NC(=O)CCCCCCCCCCCCCCCCC(=O)O)C(=O)O)C(=O)N[C@@H](CC(N)=O)C(=O)N[C@@H]([C@@H](C)O)C(=O)N[C@@H](C)C(=O)N[C@@H]([C@@H](C)O)C(=O)N1)[C@@H](C)O)C(=O)N[C@@H](CC(C)C)C(=O)N1CCC[C@H]1C(=O)N1CCC[C@H]1C(=O)N[C@H](C(=O)N[C@@H](CC(N)=O)C(=O)N[C@H](C(=O)NCC(=O)N[C@@H](CO)C(=O)N[C@@H](Cc1c[nH]cn1)C(=O)N[C@H](C(=O)N[C@@H](Cc1ccc(O)cc1)C(N)=O)[C@@H](C)O)C(C)C)[C@@H](C)O [Example 71, N-alpha-[(S)-4-Carboxy-4-(17-carboxyheptadecanoylamino)butyryl]-His-[Glu14,Arg17,His35]-pramlintide] ({C18 diacid-γGlu}-HKCNTATCATQRLAEFLRHSSNNFGPILPPTNVGSHTY-NH2; disulfide 3-8 (inferred)) | – | >45 | 10 | 0
CC[C@H](C)[C@H](NC(=O)[C@@H]1CCCN1C(=O)CNC(=O)[C@H](Cc1ccccc1)NC(=O)[C@H](CC(N)=O)NC(=O)[C@H](CC(N)=O)NC(=O)[C@H](CO)NC(=O)[C@H](CO)NC(=O)[C@H](Cc1c[nH]cn1)NC(=O)[C@H](CCCNC(=N)N)NC(=O)[C@H](CC(C)C)NC(=O)[C@H](Cc1ccccc1)NC(=O)[C@H](CCC(=O)O)NC(=O)[C@H](C)NC(=O)[C@H](CC(C)C)NC(=O)[C@H](CCCNC(=N)N)NC(=O)[C@H](CCC(N)=O)NC(=O)[C@@H](NC(=O)[C@H](C)NC(=O)[C@@H]1CSSC[C@H](NC(=O)[C@H](Cc2c[nH]cn2)NC(=O)CNC(=O)CC[C@H](NC(=O)CCCCCCCCCCCCCCCCCCC(=O)O)C(=O)O)C(=O)N[C@@H](CC(N)=O)C(=O)N[C@@H]([C@@H](C)O)C(=O)N[C@@H](C)C(=O)N[C@@H]([C@@H](C)O)C(=O)N1)[C@@H](C)O)C(=O)N[C@@H](CC(C)C)C(=O)N1CCC[C@H]1C(=O)N1CCC[C@H]1C(=O)N[C@H](C(=O)N[C@@H](CC(N)=O)C(=O)N[C@H](C(=O)NCC(=O)N[C@@H](CO)C(=O)N[C@@H](CC(N)=O)C(=O)N[C@H](C(=O)N1CCC[C@H]1C(N)=O)[C@@H](C)O)C(C)C)[C@@H](C)O [Example 89, N-alpha-[(S)-4-Carboxy-4-(19-carboxynonadecanoylamino)butyryl]-Gly-[His1,Glu14,Arg17,Pro37]-pramlintide] ({C20 diacid-γGlu}-GHCNTATCATQRLAEFLRHSSNNFGPILPPTNVGSNTP-NH2; disulfide 3-8 (inferred)) | >45 | >45 | 42 | 23
